Key:
Assay in all cases: relative viability (nuclei count vs DMSO), 5 days (fraction); higher = more cells survive
[1] = test system: NCI-H520
In short: (§1)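 Lung cancer cell lines were seeded in 1536-well plates and dosed by pin tool the next day, with either a single drug or a fixed anchor-drug dose combined with five library-drug doses (not always all listed) spaced in √10 steps. Five days later, one step fixed the cells and stained their nuclei (final 0.05% Triton X-100, 1% formaldehyde, 1 ug/ml Hoechst), and nuclei were counted on 4× images. Relative viability is the nuclei count in treated wells divided by the count in vehicle wells, and each value is the median of duplicate plates.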

[2] = test system: H3255
In short: as §1

[3] = test system: HCC-15
In short: as §1

[4] = test system: LC-2-ad
In short: as §1

[5] = test system: LU99A
In short: as §1

[6] = test system: NCI-H3122
In short: as §1

[7] = test system: NCI-H1734
In short: as §1

[8] = test system: HARA
In short: as §1

[9] = test system: NCI-H1993
In short: as §1

[10] = test system: NCI-H1666
In short: as §1

[11] = test system: PC-3 [JPC-3]
In short: as §1

[12] = test system: NCI-H647
In short: as §1

[13] = test system: HCC-366
In short: as §1

[14] = test system: SK-LU-1
In short: as §1

[15] = test system: NCI-H2228
In short: as §1

[16] = test system: NCI-H1975
In short: as §1

[17] = test system: NCI-H1944
In short: as §1

[18] = test system: NCI-H661
In short: as §1

[19] = test system: NCI-H838
In short: as §1

[20] = test system: CAL-12T
In short: as §1

[21] = test system: NCI-H1395
In short: as §1

[22] = test system: PC-14
In short: as §1

[23] = test system: COR-L 105
In short: as §1

Work on `O=C(O)CCCCC(CCSCc1ccccc1)SCc1ccccc1` (centres undefined) [CPI-613] + Nc1nc2[nH]cc(CCc3ccc(C(=O)N[C@@H](CCC(=O)O)C(=O)O)cc3)c2c(=O)[nH]1 [Pemetrexed] (partner 0.2 µM) yielded a relative viability ([1]; first compound 5 µM) of 0.708, a relative viability ([1]; first compound 15.81 µM) of 0.627 and a relative viability ([1]; first compound 50 µM) of 0.527. The relative viability ([1]; first compound 158.11 µM) was 0.232, the relative viability ([1]; first compound 500 µM) was 0.155 and the relative viability ([2]; first compound 5 µM) was 0.543. For the same compound, the relative viability ([2]; first compound 15.81 µM) was 0.54, the relative viability ([2]; first compound 50 µM) was 0.543 and the relative viability ([2]; first compound 158.11 µM) was 0.534. It also gave a relative viability ([2]; first compound 500 µM) of 0.523, a relative viability ([3]; first compound 5 µM) of 0.231 and a relative viability ([3]; first compound 15.81 µM) of 0.227. It also gave a relative viability ([3]; first compound 50 µM) of 0.221, a relative viability ([3]; first compound 158.11 µM) of 0.155 and a relative viability ([3]; first compound 500 µM) of 0.0248. For the same compound, the relative viability ([4]; first compound 5 µM) was 0.256, the relative viability ([4]; first compound 15.81 µM) was 0.275 and the relative viability ([4]; first compound 50 µM) was 0.254. It also gave a relative viability ([4]; first compound 158.11 µM) of 0.116, a relative viability ([4]; first compound 500 µM) of 0.0144 and a relative viability ([5]; first compound 5 µM) of 0.179. It also gave a relative viability ([5]; first compound 15.81 µM) of 0.199, a relative viability ([5]; first compound 50 µM) of 0.179 and a relative viability ([5]; first compound 158.11 µM) of 0.186. For the same compound, the relative viability ([5]; first compound 500 µM) was 0.183, the relative viability ([6]; first compound 5 µM) was 0.19 and the relative viability ([6]; first compound 15.81 µM) was 0.194. It also gave a relative viability ([6]; first compound 50 µM) of 0.181, a relative viability ([6]; first compound 158.11 µM) of 0.181 and a relative viability ([6]; first compound 500 µM) of 0.153. For the same compound, the relative viability ([7]; first compound 5 µM) was 0.387, the relative viability ([7]; first compound 15.81 µM) was 0.418 and the relative viability ([7]; first compound 50 µM) was 0.411. For the same compound, the relative viability ([7]; first compound 158.11 µM) was 0.38, the relative viability ([7]; first compound 500 µM) was 0.131 and the relative viability ([8]; first compound 5 µM) was 0.26. It also gave a relative viability ([8]; first compound 15.81 µM) of 0.229, a relative viability ([8]; first compound 50 µM) of 0.236 and a relative viability ([8]; first compound 158.11 µM) of 0.269. The relative viability ([8]; first compound 500 µM) was 0.0403, the relative viability ([9]; first compound 5 µM) was 0.601 and the relative viability ([9]; first compound 15.81 µM) was 0.522. The relative viability ([9]; first compound 50 µM) was 0.537, the relative viability ([9]; first compound 158.11 µM) was 0.378 and the relative viability ([9]; first compound 500 µM) was 0.278. It also gave a relative viability ([10]; first compound 5 µM) of 0.892, a relative viability ([10]; first compound 15.81 µM) of 0.857 and a relative viability ([10]; first compound 50 µM) of 0.835. It also gave a relative viability ([10]; first compound 158.11 µM) of 0.489, a relative viability ([10]; first compound 500 µM) of 0.471 and a relative viability ([11]; first compound 5 µM) of 1.13. For the same compound, the relative viability ([11]; first compound 50 µM) was 1.11, the relative viability ([11]; first compound 158.11 µM) was 0.606 and the relative viability ([11]; first compound 500 µM) was 0.362. The relative viability ([12]; first compound 5 µM) was 0.157, the relative viability ([12]; first compound 15.81 µM) was 0.158 and the relative viability ([12]; first compound 50 µM) was 0.113. The relative viability ([12]; first compound 158.11 µM) was 0.0906, the relative viability ([12]; first compound 500 µM) was 0.0167 and the relative viability ([13]; first compound 5 µM) was 0.135. For the same compound, the relative viability ([13]; first compound 15.81 µM) was 0.152, the relative viability ([13]; first compound 50 µM) was 0.162 and the relative viability ([13]; first compound 158.11 µM) was 0.123. It also gave a relative viability ([13]; first compound 500 µM) of 0.0078, a relative viability ([14]; first compound 5 µM) of 0.958 and a relative viability ([14]; first compound 15.81 µM) of 0.88. For the same compound, the relative viability ([14]; first compound 50 µM) was 0.87, the relative viability ([14]; first compound 158.11 µM) was 0.22 and the relative viability ([14]; first compound 500 µM) was 0.0978. For the same compound, the relative viability ([15]; first compound 5 µM) was 0.362, the relative viability ([15]; first compound 15.81 µM) was 0.33 and the relative viability ([15]; first compound 50 µM) was 0.324. The relative viability ([15]; first compound 158.11 µM) was 0.272, the relative viability ([15]; first compound 500 µM) was 0.059 and the relative viability ([16]; first compound 5 µM) was 0.267. It also gave a relative viability ([16]; first compound 15.81 µM) of 0.293, a relative viability ([16]; first compound 50 µM) of 0.286 and a relative viability ([16]; first compound 158.11 µM) of 0.142. It also gave a relative viability ([16]; first compound 500 µM) of 0.0754, a relative viability ([17]; first compound 5 µM) of 0.647 and a relative viability ([17]; first compound 15.81 µM) of 0.575. For the same compound, the relative viability ([17]; first compound 50 µM) was 0.577, the relative viability ([17]; first compound 158.11 µM) was 0.339 and the relative viability ([17]; first compound 500 µM) was 0.408. For the same compound, the relative viability ([18]; first compound 5 µM) was 0.887, the relative viability ([18]; first compound 15.81 µM) was 0.921 and the relative viability ([18]; first compound 50 µM) was 0.863. For the same compound, the relative viability ([18]; first compound 158.11 µM) was 0.557, the relative viability ([18]; first compound 500 µM) was 0.131 and the relative viability ([19]; first compound 5 µM) was 0.232. The relative viability ([19]; first compound 15.81 µM) was 0.229, the relative viability ([19]; first compound 50 µM) was 0.215 and the relative viability ([19]; first compound 158.11 µM) was 0.149. The relative viability ([19]; first compound 500 µM) was 0.0989, the relative viability ([20]; first compound 5 µM) was 1.02 and the relative viability ([20]; first compound 15.81 µM) was 1.03. The relative viability ([20]; first compound 50 µM) was 1.02, the relative viability ([20]; first compound 158.11 µM) was 0.0985 and the relative viability ([20]; first compound 500 µM) was 0.0501. For the same compound, the relative viability ([21]; first compound 5 µM) was 0.942, the relative viability ([21]; first compound 15.81 µM) was 0.671 and the relative viability ([21]; first compound 50 µM) was 0.868. The relative viability ([21]; first compound 158.11 µM) was 0.723, the relative viability ([21]; first compound 500 µM) was 0.598 and the relative viability ([22]; first compound 5 µM) was 0.133. For the same compound, the relative viability ([22]; first compound 15.81 µM) was 0.13, the relative viability ([22]; first compound 50 µM) was 0.122 and the relative viability ([22]; first compound 158.11 µM) was 0.121. For the same compound, the relative viability ([22]; first compound 500 µM) was 0.0065, the relative viability ([23]; first compound 5 µM) was 1.01 and the relative viability ([23]; first compound 15.81 µM) was 1.02. It also gave a relative viability ([23]; first compound 50 µM) of 1.15, a relative viability ([23]; first compound 158.11 µM) of 0.392 and a relative viability ([23]; first compound 500 µM) of 0.229.

— the supplement of paper PMC10307832
